For orientation: IC50 means the concentration at which inhibition is half-maximal. A word on the Ki: it is a measure of affinity in units of concentration, obtained from inhibition or displacement.

Data set [1] deals with Beta-1 adrenergic receptor (Homo sapiens, UniProt P08588). The data set is described as follows: DRUGMATRIX: Adrenergic beta1 radioligand binding (ligand: [125I] Cyanopindolol). It counts as cell membranes, CHO-K1, Membrane. Particulars: cho-k1; Not Active = under 50% inhibition at 10 µM.
A short description of data set [2]: DRUGMATRIX: Tumor Necrosis Factor (TNF), Non-Selective radioligand binding (ligand: [125I] TNF-alpha). Format: cell membranes, Membrane. Particulars: u-937; Not Active = under 50% inhibition at 10 µM.
The target of data set [3] is T1, 3-hydroxy-3-methylglutaryl-coenzyme A reductase (Homo sapiens, UniProt P04035).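 Further: enzyme inhibition assay of HMG-CoA reductase using radiolabeled [14C]HMG-CoA as substrate; in other assays of this panel Not Active means under 50% inhibition at 10 µM.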
T1 sequence (P04035 whole entry): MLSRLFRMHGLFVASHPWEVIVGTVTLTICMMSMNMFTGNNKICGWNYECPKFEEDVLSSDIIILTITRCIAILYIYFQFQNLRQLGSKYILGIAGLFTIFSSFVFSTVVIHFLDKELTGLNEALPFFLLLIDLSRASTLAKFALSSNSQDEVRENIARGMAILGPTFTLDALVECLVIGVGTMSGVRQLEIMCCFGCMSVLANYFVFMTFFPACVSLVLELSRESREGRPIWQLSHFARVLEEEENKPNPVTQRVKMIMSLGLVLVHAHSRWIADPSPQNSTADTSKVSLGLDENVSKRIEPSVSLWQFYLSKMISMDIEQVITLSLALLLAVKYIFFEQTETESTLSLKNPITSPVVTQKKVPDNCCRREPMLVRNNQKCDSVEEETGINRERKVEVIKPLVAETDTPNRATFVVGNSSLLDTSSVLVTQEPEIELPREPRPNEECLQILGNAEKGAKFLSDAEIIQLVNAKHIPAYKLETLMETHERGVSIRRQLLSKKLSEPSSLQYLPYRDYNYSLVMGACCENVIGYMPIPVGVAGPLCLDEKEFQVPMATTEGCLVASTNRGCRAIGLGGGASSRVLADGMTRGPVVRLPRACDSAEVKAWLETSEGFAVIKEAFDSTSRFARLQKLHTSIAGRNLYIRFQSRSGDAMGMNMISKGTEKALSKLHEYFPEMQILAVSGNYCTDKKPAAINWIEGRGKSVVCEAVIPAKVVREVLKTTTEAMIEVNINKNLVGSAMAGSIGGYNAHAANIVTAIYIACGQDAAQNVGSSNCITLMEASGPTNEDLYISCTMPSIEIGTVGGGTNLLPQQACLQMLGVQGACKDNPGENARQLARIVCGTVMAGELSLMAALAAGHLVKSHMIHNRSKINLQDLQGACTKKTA
Also noted: species or system Escherichia coli.

The nature of data set [4]: DRUGMATRIX: Phosphodiesterase PDE4 enzyme inhibition (substrate: [3H]cAMP + cAMP). Particulars: u-937, Not Active = under 50% inhibition at 10 µM.
For data set [5], the target named is Matrix metalloproteinase-9 (Homo sapiens, UniProt P14780). Format: cell-based.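 Further: inhibition of isolated MMP-9 enzyme activity toward a synthetic peptide substrate, from the DrugMatrix protease screening panel; in other assays of this panel Not Active means under 50% inhibition at 10 µM.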
The target of data set [6] is 5-hydroxytryptamine receptor 1B (Rattus norvegicus, UniProt P28564). It counts as cell membranes, Wistar, Cerebral cortex, Membrane. Further: in other assays of this panel Not Active means under 50% inhibition at 10 µM.
Another data set has as its target Cytochrome P450 2C9 (Homo sapiens, UniProt P11712). Particulars: bti-tn-5b1-4. Further: in other assays of this panel Not Active means under 50% inhibition at 10 µM.
A further data set addresses Cytochrome P450 3A4 (Homo sapiens, UniProt P08684). Particulars: bti-tn-5b1-4.

Cytochrome P450 2C9, sequence (P11712 whole entry): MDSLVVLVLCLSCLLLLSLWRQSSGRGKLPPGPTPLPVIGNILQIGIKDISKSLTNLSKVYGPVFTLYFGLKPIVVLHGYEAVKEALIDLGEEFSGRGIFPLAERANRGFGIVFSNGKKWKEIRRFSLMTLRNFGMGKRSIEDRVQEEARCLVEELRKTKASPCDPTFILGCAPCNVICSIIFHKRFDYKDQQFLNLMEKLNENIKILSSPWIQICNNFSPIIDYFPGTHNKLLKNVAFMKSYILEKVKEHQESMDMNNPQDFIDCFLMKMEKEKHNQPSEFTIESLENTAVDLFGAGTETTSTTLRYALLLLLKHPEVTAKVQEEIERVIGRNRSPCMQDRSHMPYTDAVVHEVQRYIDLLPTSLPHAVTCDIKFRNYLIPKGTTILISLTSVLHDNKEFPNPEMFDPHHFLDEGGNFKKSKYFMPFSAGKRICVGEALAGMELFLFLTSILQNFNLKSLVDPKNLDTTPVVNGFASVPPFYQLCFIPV
Beta-1 adrenergic receptor, sequence (P08588 whole entry): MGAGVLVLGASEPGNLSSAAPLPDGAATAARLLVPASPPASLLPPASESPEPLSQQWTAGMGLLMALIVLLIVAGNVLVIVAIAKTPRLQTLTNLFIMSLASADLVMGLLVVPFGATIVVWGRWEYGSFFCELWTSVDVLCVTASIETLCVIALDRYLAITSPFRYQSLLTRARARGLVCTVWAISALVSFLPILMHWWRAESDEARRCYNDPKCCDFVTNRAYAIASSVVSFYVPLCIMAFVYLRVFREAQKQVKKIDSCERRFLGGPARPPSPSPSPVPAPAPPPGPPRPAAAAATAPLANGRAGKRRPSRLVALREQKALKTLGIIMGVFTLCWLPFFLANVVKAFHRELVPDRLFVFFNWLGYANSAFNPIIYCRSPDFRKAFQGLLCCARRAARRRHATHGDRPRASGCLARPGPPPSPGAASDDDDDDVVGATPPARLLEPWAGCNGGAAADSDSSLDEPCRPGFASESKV
Matrix metalloproteinase-9, sequence (P14780 whole entry): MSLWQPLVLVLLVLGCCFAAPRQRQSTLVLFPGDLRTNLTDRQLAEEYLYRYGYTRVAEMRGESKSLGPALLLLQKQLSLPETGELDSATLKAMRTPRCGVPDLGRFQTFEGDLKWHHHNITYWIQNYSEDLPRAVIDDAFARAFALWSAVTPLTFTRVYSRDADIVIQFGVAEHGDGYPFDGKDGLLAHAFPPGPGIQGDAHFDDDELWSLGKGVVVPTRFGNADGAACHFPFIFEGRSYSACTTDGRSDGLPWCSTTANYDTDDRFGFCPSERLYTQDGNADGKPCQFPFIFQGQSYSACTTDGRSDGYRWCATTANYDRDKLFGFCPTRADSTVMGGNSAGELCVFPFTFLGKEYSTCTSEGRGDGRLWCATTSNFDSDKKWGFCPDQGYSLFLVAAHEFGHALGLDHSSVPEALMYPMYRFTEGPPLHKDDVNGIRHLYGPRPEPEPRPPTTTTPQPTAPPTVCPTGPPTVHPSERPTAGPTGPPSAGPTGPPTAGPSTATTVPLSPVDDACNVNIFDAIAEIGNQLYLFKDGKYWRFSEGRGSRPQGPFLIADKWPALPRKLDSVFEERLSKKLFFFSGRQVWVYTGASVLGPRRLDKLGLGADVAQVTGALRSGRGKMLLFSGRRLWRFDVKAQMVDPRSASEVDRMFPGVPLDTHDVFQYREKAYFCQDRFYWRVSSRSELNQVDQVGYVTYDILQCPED
5-hydroxytryptamine receptor 1B, sequence (P28564 whole entry): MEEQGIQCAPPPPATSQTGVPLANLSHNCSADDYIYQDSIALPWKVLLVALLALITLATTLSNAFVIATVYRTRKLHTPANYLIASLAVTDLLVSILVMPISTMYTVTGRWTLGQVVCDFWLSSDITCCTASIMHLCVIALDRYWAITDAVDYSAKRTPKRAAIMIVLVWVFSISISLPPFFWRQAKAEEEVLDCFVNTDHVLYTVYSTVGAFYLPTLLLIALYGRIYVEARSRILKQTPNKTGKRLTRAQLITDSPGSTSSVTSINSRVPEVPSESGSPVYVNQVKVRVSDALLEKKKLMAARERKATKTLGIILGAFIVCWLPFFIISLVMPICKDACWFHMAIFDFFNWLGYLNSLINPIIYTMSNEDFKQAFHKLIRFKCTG
Cytochrome P450 3A4, sequence (P08684 whole entry): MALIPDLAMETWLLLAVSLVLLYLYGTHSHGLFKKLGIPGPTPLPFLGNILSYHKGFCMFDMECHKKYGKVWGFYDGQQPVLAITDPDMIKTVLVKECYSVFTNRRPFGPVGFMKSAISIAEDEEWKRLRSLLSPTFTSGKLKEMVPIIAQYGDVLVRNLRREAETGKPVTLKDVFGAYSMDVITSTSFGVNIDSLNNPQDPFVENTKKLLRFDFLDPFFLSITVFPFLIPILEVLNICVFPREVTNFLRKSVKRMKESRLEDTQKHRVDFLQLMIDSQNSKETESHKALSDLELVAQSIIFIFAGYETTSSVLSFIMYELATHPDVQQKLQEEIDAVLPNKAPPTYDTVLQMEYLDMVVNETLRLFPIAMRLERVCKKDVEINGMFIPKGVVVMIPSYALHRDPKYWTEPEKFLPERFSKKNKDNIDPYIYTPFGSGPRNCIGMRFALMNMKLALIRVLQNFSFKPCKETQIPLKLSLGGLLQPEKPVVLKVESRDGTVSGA

Regarding `C[N+](C)(C)CCOC(N)=O.[Cl-]` [CARBACHOL], the IC50 result in data set [1], in data set [2], in data set [3], in data set [4], in data set [5] and in data set [6] was “Not Active” in each case. Besides, the IC50 result against Cytochrome P450 2C9 and against Cytochrome P450 3A4 was “Not Active” throughout. The Ki result (in data set [2]; in data set [4]; at Cytochrome P450 2C9; at Cytochrome P450 3A4) was “Not Active” each time.
For the molecule `C[C@]12CC[C@@H](O)C[C@@H]1CC[C@@H]1[C@@H]2CC[C@]2(C)C(=O)CC[C@@H]12` [ANDROSTERONE], the IC50 result (in data set [1]; in data set [2]; in data set [3]; in data set [4]; in data set [6]; on Cytochrome P450 2C9) was “Not Active” each time. Moreover, at Cytochrome P450 3A4, the IC50 result was “Not Active”. In addition, the Ki entry (in data set [2]; in data set [4]; in data set [5]; on Cytochrome P450 2C9; at Cytochrome P450 3A4) was “Not Active” each time.
As for `COc1ccccc1OCCNCC(O)COc1cccc2[nH]c3ccccc3c12` (stereo not drawn) [CARVEDILOL], the IC50 entry in data set [2] was “Not Active”; in data set [3] it was “Not Active”; in data set [4], “Not Active”; in data set [5], “Not Active”; in data set [6] (read-out: IC50) it was 1.29 µM; against Cytochrome P450 2C9, “Not Active”. Further, on Cytochrome P450 3A4, the IC50 result is recorded as “Not Active”. Further, the Ki entry is “Not Active” in data set [2]; “Not Active” in data set [4]; 0.589 µM in data set [6] (read-out: Ki); “Not Active” on Cytochrome P450 2C9; “Not Active” on Cytochrome P450 3A4.
Turning to `COc1cc([C@@H]2c3cc4c(cc3[C@H](O)[C@H]3COC(=O)[C@H]23)OCO4)cc(OC)c1OC` [PODOFILOX], the IC50 entry in data set [1], in data set [2], in data set [3], in data set [4], in data set [5] and in data set [6] was “Not Active” throughout. The Ki result in data set [2] and in data set [4] was “Not Active” each time.
With `C#C[C@]1(O)CC[C@H]2[C@@H]3CCC4=CC(=O)CC[C@@H]4[C@H]3CC[C@@]21C` [NORETHINDRONE], the IC50 entry in data set [1], in data set [2], in data set [3], in data set [4], in data set [5] and in data set [6] was “Not Active” in each case. Besides, the Ki entry in data set [2] and in data set [4] was “Not Active” throughout.
As to `Cc1c(N)nc([C@H](CC(N)=O)NC[C@H](N)C(N)=O)nc1C(=O)N[C@H](C(=O)N[C@H](C)[C@@H](O)[C@H](C)C(=O)N[C@H](C(=O)NCCc1nc(-c2nc(C(=O)NCCC[S+](C)C)cs2)cs1)[C@@H](C)O)[C@@H](O[C@@H]1O[C@@H](CO)[C@@H](O)[C@H](O)[C@@H]1O[C@H]1O[C@H](CO)[C@@H](O)[C@H](OC(N)=O)[C@@H]1O)c1c[nH]cn1.[Br-]` [BLEOMYCIN A2], the IC50 result (in data set [2]; in data set [3]; in data set [4]; in data set [5]; in data set [6]; against Cytochrome P450 2C9) was “Not Active” each time. Further, the IC50 entry on Cytochrome P450 3A4 was “Not Active”. Further, the Ki result (in data set [2]; in data set [4]; at Cytochrome P450 2C9; at Cytochrome P450 3A4) was “Not Active” throughout.
Take `NS(=O)(=O)c1cc(C(=O)O)c(NCc2ccco2)cc1Cl` [FUROSEMIDE]: the IC50 result in data set [1], in data set [2], in data set [3], in data set [4], in data set [5] and in data set [6] was “Not Active” each time. Also, the Ki entry in data set [2] and in data set [4] was “Not Active” throughout.
Consider `C[C@H]1C[C@H]2[C@@H]3CCC4=CC(=O)C=C[C@]4(C)[C@@]3(F)[C@@H](O)C[C@]2(C)[C@@]1(O)C(=O)CO` [BETAMETHASONE], for which the IC50 result in data set [1], in data set [2], in data set [3], in data set [4], in data set [5] and in data set [6] was “Not Active” in each case. The Ki result in data set [2] and in data set [4] was “Not Active” each time.
For `CC[C@H]1OC(=O)[C@H](C)[C@@H](O[C@H]2C[C@@](C)(OC)[C@@H](O)[C@H](C)O2)[C@H](C)[C@@H](O[C@@H]2O[C@H](C)C[C@H](N(C)C)[C@H]2O)[C@](C)(O)C[C@@H](C)C(=O)[C@H](C)[C@@H](O)[C@]1(C)O` [ERYTHROMYCIN], the IC50 result in data set [1], in data set [2], in data set [3], in data set [4], in data set [5] and in data set [6] was “Not Active” each time. Moreover, the IC50 result on Cytochrome P450 3A4 is recorded as “Not Active”. In addition, the Ki entry (in data set [2]; in data set [4]; at Cytochrome P450 3A4) was “Not Active” each time.
For the molecule `CN(CCOc1ccc(C[C@H](Nc2ccccc2C(=O)c2ccccc2)C(=O)O)cc1)c1ccccn1`, the IC50 result was “Not Active” in data set [1]; “Not Active” in data set [2]; “Not Active” in data set [3]; 7.45 µM in data set [4] (read-out: IC50); “Not Active” in data set [5]; “Not Active” in data set [6]. Besides, the IC50 entry against Cytochrome P450 3A4 is “Not Active”. For the same molecule, the Ki result (in data set [2]; on Cytochrome P450 3A4) was “Not Active” in each case.
`CC(C)(C#N)c1cc(Cn2cncn2)cc(C(C)(C)C#N)c1` [ANASTROZOLE]: the IC50 result in data set [1], in data set [2], in data set [3], in data set [4], in data set [5] and in data set [6] was “Not Active” in each case. The IC50 result on Cytochrome P450 2C9 was “Not Active”. In addition, the Ki result (in data set [2]; in data set [4]; on Cytochrome P450 2C9) was “Not Active” in each case.
Take `CC(C)NCC(O)COc1ccc(CC(N)=O)cc1` (stereo not drawn) [ATENOLOL]: the IC50 result in data set [2], in data set [3], in data set [4], in data set [5] and in data set [6] was “Not Active” throughout. Also, the Ki entry in data set [2] and in data set [4] was “Not Active” throughout.
In the case of `CCN(CCO)CCCC(C)Nc1ccnc2cc(Cl)ccc12` (stereo not drawn) [HYDROXYCHLOROQUINE], the IC50 result in data set [2], in data set [3], in data set [4], in data set [5] and in data set [6] was “Not Active” throughout. Besides, the Ki result in data set [2] and in data set [4] was “Not Active” each time.
Regarding `COc1ccc(Cl)cc1C(=O)NCCc1ccc(S(=O)(=O)NC(=O)NC2CCCCC2)cc1` [GLYBURIDE], the IC50 result in data set [1], in data set [2], in data set [3], in data set [4], in data set [5] and in data set [6] was “Not Active” throughout. For the same molecule, the inhibitory constant (Ki) entry in data set [2] and in data set [4] was “Not Active” each time.
As for `O=C(O)CNCP(=O)(O)O` [GLYPHOSATE], the IC50 result in data set [1], in data set [2], in data set [3], in data set [4], in data set [5] and in data set [6] was “Not Active” in each case. The Ki result in data set [2] and in data set [4] was “Not Active” throughout.

Values taken from ChEMBL document CHEMBL1909046, “DrugMatrix in vitro pharmacology data”.
